The record followed here is article PMC5391474, “Investigation of the Role of Protein Kinase D in Human Rhinovirus Replication” (Journal of Virology, 2017).

Test in all cases: biochemical
Holding throughout (design): in vitro kinase selectivity panel, protein and lipid kinases, single concentration, ATP at Km
Holding throughout (details): ATP at Km

Assay [1] concerns the target Blk(m) (Mus musculus, UniProt P16277). How it is done: (§1) CRT0066101 was described previously ([48]) and was purchased for this study from Tocris, with a purity of 99.9%. CRT0066101 (XX-209) and compound XX-050 were synthesized as previously described ([68]). CRT0066051 (Y-095) was also synthesized as previously described ([69]). […] CRT0066101 can also be obtained in larger quantities from Ximbio. Inhibitors were tested in in vitro PKD kinase assays and cellular assays on PANC1 cells as previously described ([48]). The selectivity of the three PKD inhibitors was determined against a panel of protein and lipid kinases by Eurofins and the MRC PPU International Centre for Kinase Profiling (http://www.kinase-screen.mrc.ac.uk), respectively. Each inhibitor was tested at a single concentration of 1 μM and at an ATP concentration equivalent to the Km for each kinase. Having shown that HRV infection appears to activate PKD, we went on to explore the influence of chemical inhibitors of PKD on HRV replication. The compound CRT0066101 is a specific and potent PKD inhibitor that has been used in studies exploring its potential as an anticancer target ([48], [51]). This inhibitor has a 50% inhibitory concentration (IC50) of 1 nM against purified PKD in biochemical assays and a 50% effective concentration (EC50) of 1 μM in a cell-based assay (Table 1). We pretreated HeLa cells with increasing concentrations of the drug for 1 h followed by infection with HRV16. Viral replication was subsequently measured at 6 hpi by quantitative real-time PCR (qRT-PCR) (Fig. 2A) and by Western blotting using an antibody against the viral nonstructural protein 2C (Fig. 2B). […] Furthermore, we tested two novel and structurally different PKD inhibitors (CRT0066051 and XX-050) (Table 1) and confirmed that they too inhibited HRV 2C expression although with different potencies (Fig. 2D). Kinase selectivity profiling of all three PKD inhibitors was performed against a panel of protein and lipid kinases at a drug concentration of 1 μM and at an ATP concentration equivalent to the Km of each kinase (see Table S1 in the supplemental material). […] Since PKD is known to be involved in regulating the architecture of the Golgi apparatus, we confirmed the pharmacodynamic effect of these inhibitors by demon

In assay [2] the target is HIPK2(h) (Homo sapiens, UniProt Q9H2X6). Here is the method:
as §1

The target in assay [3] is T1, MAPK2(h) (Homo sapiens, UniProt P28482).
T1 construct: gene MAPK1
How it is done: as §1

Assay [4] deals with PIP4K2A (Homo sapiens, UniProt P48426). How it is done:
as §1

For assay [5], the target named is T2, Ron(h) (Homo sapiens, UniProt Q04912).
T2 construct: gene MST1R
How it is done: as §1

Assay [6] deals with NEK2(h) (Homo sapiens, UniProt P51955). How it is done:
as §1

Assay [7] addresses T3, PKCι(h) (Homo sapiens, UniProt P41743).
T3 construct: gene PRKCI
Here is the method:
as §1

Assay [8] has as its target T4, Rsk1(h) (Homo sapiens, UniProt Q15418).
T4 construct: gene RPS6KA1
How it is done: as §1

Assay [9] deals with T5, Abl(T315I)(h) (Homo sapiens, UniProt P00519, T315I).
T5 construct: gene ABL1
Here is the method: as §1

Assay [10] has as its target PAK2(h) (Homo sapiens, UniProt Q13177). How it is done:
as §1

Assay [11] concerns the target T6, PRK2(h) (Homo sapiens, UniProt Q16513).
T6 construct: gene PKN2
Here is the method: as §1

Assay [12] deals with EGFR(T790M,L858R)(h) (Homo sapiens, UniProt P00533, L858R/T790M). How it is done: as §1
The target of assay [13] is T7, CaMKI(h) (Homo sapiens, UniProt Q14012).
T7 construct: gene CAMK1
Here is the method: as §1

Assay [14] addresses T8, MEK1(h) (Homo sapiens, UniProt Q02750).
T8 construct: gene MAP2K1
How it is done:
as §1

Assay [15] deals with CSK(h) (Homo sapiens, UniProt P41240). Here is the method: as §1
Assay [16] addresses DDR2(h) (Homo sapiens, UniProt Q16832). Here is the method: as §1
Assay [17] concerns the target CHKB (Homo sapiens, UniProt Q9Y259). Here is the method:
as §1

Assay [18] has as its target EphB4(h) (Homo sapiens, UniProt P54760). Here is the method: as §1

T3 sequence (P41743 whole entry): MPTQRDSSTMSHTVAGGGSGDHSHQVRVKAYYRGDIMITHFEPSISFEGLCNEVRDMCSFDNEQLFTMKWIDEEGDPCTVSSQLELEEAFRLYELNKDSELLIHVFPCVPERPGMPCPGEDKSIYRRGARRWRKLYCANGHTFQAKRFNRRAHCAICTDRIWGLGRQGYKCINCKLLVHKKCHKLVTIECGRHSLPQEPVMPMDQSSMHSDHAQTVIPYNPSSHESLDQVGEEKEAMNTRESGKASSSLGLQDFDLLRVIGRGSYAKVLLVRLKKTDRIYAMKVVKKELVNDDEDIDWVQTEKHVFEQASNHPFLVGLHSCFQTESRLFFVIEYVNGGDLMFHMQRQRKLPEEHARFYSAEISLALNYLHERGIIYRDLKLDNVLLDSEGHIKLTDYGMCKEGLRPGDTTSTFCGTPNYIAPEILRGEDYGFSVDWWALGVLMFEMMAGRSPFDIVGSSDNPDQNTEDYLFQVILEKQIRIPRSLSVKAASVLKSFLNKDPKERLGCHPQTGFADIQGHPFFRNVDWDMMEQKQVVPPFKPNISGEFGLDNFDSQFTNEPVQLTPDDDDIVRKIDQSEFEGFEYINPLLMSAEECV
Chain of Blk(m) (P16277 whole entry): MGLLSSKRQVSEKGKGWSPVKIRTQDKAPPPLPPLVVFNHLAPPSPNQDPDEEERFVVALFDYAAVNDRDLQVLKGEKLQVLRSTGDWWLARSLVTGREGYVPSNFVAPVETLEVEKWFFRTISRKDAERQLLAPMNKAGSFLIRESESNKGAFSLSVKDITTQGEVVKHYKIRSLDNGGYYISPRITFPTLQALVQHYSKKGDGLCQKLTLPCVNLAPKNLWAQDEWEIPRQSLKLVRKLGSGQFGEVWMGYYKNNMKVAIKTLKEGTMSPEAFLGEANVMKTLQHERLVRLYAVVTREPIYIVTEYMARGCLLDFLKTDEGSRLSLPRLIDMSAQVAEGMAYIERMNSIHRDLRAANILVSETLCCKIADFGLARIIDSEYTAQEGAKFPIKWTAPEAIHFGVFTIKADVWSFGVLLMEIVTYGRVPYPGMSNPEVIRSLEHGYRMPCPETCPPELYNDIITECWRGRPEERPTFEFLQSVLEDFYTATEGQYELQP
Chain of HIPK2(h) (Q9H2X6 whole entry): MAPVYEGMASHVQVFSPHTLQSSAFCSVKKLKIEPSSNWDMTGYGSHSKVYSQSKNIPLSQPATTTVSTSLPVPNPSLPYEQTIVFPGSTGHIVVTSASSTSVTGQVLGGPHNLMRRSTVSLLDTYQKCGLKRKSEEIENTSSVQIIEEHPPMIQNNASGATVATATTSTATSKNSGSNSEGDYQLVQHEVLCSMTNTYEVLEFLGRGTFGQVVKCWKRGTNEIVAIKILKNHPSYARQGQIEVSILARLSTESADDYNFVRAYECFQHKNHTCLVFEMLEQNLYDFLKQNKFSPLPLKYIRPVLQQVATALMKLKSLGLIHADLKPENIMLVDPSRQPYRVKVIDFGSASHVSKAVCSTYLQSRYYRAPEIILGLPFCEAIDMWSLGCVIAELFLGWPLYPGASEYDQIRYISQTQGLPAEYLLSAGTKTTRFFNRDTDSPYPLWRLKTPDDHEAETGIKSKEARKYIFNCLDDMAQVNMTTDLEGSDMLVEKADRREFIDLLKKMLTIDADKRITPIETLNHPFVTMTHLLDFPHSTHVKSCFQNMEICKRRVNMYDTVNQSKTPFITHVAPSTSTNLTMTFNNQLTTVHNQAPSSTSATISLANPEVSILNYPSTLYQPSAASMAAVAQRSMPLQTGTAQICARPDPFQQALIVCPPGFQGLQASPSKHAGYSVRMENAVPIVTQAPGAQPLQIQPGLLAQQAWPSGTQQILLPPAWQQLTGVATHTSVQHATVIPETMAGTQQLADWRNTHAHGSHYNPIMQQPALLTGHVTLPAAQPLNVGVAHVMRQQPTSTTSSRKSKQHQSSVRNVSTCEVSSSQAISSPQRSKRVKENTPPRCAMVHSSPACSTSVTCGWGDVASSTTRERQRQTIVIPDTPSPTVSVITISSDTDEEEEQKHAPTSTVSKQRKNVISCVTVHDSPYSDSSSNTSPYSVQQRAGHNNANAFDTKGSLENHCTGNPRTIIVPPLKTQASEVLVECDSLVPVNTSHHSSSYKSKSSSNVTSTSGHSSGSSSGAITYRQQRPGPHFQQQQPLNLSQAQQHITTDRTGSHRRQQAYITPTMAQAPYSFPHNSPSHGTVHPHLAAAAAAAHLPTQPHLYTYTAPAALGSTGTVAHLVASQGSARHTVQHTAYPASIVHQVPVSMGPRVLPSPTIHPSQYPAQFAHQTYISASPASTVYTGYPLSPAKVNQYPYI
Chain of PAK2(h) (Q13177 whole entry): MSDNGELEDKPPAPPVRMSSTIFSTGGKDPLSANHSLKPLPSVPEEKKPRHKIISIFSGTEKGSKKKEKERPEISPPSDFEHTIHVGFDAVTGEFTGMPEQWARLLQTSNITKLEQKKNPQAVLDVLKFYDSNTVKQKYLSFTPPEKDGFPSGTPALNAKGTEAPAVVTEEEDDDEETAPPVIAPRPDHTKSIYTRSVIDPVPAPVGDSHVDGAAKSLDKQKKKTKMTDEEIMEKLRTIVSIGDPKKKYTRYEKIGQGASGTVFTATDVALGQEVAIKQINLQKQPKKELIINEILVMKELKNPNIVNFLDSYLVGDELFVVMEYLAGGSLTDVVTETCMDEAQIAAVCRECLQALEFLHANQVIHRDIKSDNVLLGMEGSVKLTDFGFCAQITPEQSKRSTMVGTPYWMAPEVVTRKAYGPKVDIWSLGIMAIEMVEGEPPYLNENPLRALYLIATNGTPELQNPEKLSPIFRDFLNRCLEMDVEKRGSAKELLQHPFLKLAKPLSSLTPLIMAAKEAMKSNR
Chain of CSK(h) (P41240 whole entry): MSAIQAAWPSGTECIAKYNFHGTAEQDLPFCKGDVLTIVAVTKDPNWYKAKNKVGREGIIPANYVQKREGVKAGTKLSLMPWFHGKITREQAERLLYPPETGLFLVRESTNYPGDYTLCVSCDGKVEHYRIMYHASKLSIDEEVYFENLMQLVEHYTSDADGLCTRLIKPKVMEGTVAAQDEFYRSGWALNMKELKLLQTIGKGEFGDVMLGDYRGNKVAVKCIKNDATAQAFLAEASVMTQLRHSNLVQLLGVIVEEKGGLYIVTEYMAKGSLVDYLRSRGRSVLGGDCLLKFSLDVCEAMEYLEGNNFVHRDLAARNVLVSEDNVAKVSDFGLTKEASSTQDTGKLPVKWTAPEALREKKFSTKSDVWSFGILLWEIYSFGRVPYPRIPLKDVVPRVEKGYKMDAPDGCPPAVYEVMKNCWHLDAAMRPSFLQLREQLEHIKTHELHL
Chain of DDR2(h) (Q16832 whole entry): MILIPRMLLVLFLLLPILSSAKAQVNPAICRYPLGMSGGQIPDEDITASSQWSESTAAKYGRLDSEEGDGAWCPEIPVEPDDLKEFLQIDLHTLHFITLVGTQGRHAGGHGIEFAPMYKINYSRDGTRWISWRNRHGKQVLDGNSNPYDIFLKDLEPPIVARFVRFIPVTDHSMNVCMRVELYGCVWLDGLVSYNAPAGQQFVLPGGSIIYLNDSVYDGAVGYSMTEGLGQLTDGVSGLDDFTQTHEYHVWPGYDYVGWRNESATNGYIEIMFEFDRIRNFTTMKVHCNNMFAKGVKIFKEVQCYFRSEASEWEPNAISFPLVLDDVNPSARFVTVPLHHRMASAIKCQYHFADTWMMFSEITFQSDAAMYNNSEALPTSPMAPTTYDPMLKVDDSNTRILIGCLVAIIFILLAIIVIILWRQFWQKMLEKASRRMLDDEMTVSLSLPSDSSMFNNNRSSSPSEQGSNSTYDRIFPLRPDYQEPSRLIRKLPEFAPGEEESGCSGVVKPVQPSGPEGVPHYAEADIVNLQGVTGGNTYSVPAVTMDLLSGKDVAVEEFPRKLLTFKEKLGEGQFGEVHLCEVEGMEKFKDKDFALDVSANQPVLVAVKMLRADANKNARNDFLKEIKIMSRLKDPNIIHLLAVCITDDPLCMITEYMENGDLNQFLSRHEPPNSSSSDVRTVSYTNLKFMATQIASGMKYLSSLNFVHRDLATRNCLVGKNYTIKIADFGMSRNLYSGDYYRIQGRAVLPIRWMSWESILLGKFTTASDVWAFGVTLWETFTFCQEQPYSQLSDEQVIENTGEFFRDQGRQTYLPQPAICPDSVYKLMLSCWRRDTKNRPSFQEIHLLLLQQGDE
T4 sequence (Q15418 whole entry): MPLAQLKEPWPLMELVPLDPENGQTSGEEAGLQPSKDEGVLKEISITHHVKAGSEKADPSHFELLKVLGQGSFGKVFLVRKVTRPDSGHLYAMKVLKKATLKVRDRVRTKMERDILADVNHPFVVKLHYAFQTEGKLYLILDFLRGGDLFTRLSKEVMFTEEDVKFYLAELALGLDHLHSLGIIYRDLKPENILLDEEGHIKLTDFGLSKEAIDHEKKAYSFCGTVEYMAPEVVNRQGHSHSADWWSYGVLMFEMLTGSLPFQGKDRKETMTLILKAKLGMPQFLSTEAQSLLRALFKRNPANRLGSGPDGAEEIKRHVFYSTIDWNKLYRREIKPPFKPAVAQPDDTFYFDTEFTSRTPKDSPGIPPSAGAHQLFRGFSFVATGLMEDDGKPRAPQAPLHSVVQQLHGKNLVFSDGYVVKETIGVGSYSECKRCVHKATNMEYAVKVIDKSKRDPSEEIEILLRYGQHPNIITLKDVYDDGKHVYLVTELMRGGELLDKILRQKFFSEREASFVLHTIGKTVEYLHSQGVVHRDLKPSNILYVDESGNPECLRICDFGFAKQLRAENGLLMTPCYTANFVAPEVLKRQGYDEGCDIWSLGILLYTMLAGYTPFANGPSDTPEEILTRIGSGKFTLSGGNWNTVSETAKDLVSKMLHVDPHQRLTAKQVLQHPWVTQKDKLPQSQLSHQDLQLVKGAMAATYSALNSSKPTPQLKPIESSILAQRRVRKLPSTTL

With `CC[C@@H](N)CNc1ccnc(-c2cc(-c3cnn(C)c3)ccc2O)n1` [CRT0066101], the inhibition at 1 µM is 12% in assay [1]; 55% in assay [2]; -9% in assay [3]; -22% in [4]; -8% in assay [5]; 0% in assay [6]. Moreover, the inhibition at 1 µM is 10% in [7]; 48% in assay [8]; 5% in [9]; 9% in [10]; 77% in assay [11]; -3% in [12]. The inhibition at 1 µM in [13] is 2%; in [14], 9%; in [15], 7%; in assay [16], -3%; in assay [17], 3%; in [18], 25%.
